System: off-target adenosine receptors
Assay: Cross-sensitivity test: stimulation of off-target receptors in HEK293 cells on the biomolecular detection device
Format: cell-based
Conditions: 5 μM NECA, FIG. 6a
Description: SNAP-β2AR cells were grown to 60-80% confluency in T25 culture flasks, washed twice with warm phosphate-buffered saline (PBS), incubated with 1× Versene for 5 min and resuspended in cell culture medium. In order to decrease baseline signal contributions from non-functional cellular debris, the cells were centrifuged at 50 rpm for 1 min and resuspended in culture media two times sequentially. The cells were seeded to reach confluency on the waveguide in an incubation chamber containing 500 μl cell culture media. Cells were only seeded when viability exceeded 90%, as determined by a Countess automated cell counter (Invitrogen). Except for the real-time establishment of the transmembrane nanopattern, seeded cells were kept in a CO2 incubator at 37° C. for 2 h to allow cells adherence to the sensor chip (and covalent interaction of the SNAP-tag on the β2AR with the SNAP-tag substrate on the chip). The incubation chamber containing the cells was then washed twice with warm HBSS buffer (supplemented with 20 mM HEPES, pH 7.4) adjusted for DMSO and transferred to a modified F3000 ZeptoReader (Zeptosens) which was kept at 35° C. […] For all assays, the signal was monitored for 7 min (baseline measurement) before careful substitution of the buffer with buffer containing the β2AR ligand and monitored for another 21 min thereafter. […]

CCNC(=O)[C@H]1O[C@@H](n2cnc3c(N)ncnc32)[C@H](O)[C@@H]1O [NECA]
signal (mass increase at the receptor relative to the initial mass) upon off-target stimulation: no significant signal change

Reference: patent publication US20220397573A1, “Biomolecular Detection Device” (Hoffmann-La Roche Inc., priority 2019, published 2022)
